This passage reports binding and Kd results from paper PMC11764150 (2025).

Where two headings read alike, the source gives them in different places.

For assay [1], the system named is COC Apt-AuNP (biotin-ended COC aptamer) (DNA, aptamer) AGGAATTCAGATCTCCCTGCAGTTCGAGGAAGAATAGACCTGCCTTCTAATAGCTCGAGGAGCTCAGGATCCCG
Description: competitive lateral flow assay.

Assay [2] relates to MET Apt-AuNP (biotin-ended MET aptamer) (DNA, aptamer) AGGAATTCAGATCTCCCTGCAGAAAACAGACCACCCACTTTGAATCCACTTGACTCGAGGAGCTCAGGATCCCG
Description: competitive lateral flow assay.

Assay [3] deals with MET aptamer (DNA, aptamer) AGGAATTCAGATCTCCCTGCAGAAAACAGACCACCCACTTTGAATCCACTTGACTCGAGGAGCTCAGGATCCCG
Kind of assay: isothermal titration calorimetry. Particulars: 100 mM NaCl, 2.7 mM KCl, 2 mM MgCl2.

The subject of assay [4] is COC aptamer (DNA, aptamer) AGGAATTCAGATCTCCCTGCAGTTCGAGGAAGAATAGACCTGCCTTCTAATAGCTCGAGGAGCTCAGGATCCCG
Kind of assay: isothermal titration calorimetry. Particulars: 100 mM NaCl, 2.7 mM KCl, 2 mM MgCl2. In general terms: ITC needs no label: the signal is the heat of the interaction.

Broadly, the Kd is the constant that tells how readily two partners part at equilibrium.

With `CCCCCc1cc(O)c2c(c1)OC(C)(C)[C@@H]1CCC(C)=C[C@@H]21`, the binding result in assay [1] and in assay [2] was “no” throughout.
For the molecule `CN[C@@H](C)Cc1ccccc1`, the binding entry in assay [1] (synthetic saliva, gold nanoparticle conjugate, COC-BSA test line) was “no”; in assay [2], “yes”. This molecule also yielded a Kd in assay [3] of 570 nM.
Consider `COC(=O)[C@H]1[C@@H](OC(=O)c2ccccc2)C[C@@H]2CC[C@H]1N2C`, for which the binding result in assay [1] (synthetic saliva, gold nanoparticle conjugate, COC-BSA test line, positive at 5.0 ng/mL to 1.0 µg/mL) is recorded as “yes”; in assay [2] it was “no”. The same molecule showed a Kd in assay [4] of 306 nM.
As to `COc1ccc2c3c1O[C@H]1[C@@H](O)C=C[C@H]4[C@@H](C2)N(C)CC[C@@]341`, the binding entry in assay [1] and in assay [2] was “no” each time.
